# Data from US12448383B2, “Compounds and methods for treatment of viral infections” (priority 2022, dated 2025).
# What was measured:
# [1] = test system: SARS Coronavirus 2 recombinant with NanoLuc (SARS-CoV2-NLuc) in A549-hACE2 cells; assay: organism not typed; assay type: cell-based; details: 48 h; read-out: SARS-CoV2 EC50
# [2] = test system: Respiratory syncytial virus recombinant with luciferase (RSV-Luc5) in Normal Human Bronchial Epithelial (NHBE) cells; assay: microbe, parasite or virus in culture; assay type: cell-based; details: 72 h, read-out: RSV NHBE EC50
# [3] = CC50 MT4 cytotoxicity (Cell-Titer Glo); assay type: cell-based; details: human
# Procedure, shortened: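 CC50 values are the concentrations cutting viability by 50%, fitted by non-linear regression against untreated (100%) and 2 μM puromycin (0%) controls. Cell-Titer Glo luminescence measured after 4-5 days at 37° C exposure of uninfected MT-4 and HEp-2 cells to 3-fold dilutions spanning 15 nM to 100,000 nM.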
# [4] = GI S9 stability - no PMSF; assay type: in vitro ADME; details: pH 7.4; human intestinal S9, PMSF-free; read-out: GIS9-HUMAN-NoPMSF T1/2
# Procedure, shortened: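 Stability was assessed by Q-Exactive LC-MS peak area ratios against internal standard, tracking loss of parent and appearance of nucleoside metabolite Reference Compound A. Incubations used 2 μM compound in 1 mg/mL intestinal S9 without PMSF (PBS, pH 7.4), with six samples taken over 120 min.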
# [5] = Plasma stability; assay type: in vitro ADME; set-up: unit not given here; details: 37° C., 2 μM substrate
# Procedure, shortened: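 LC-MS (Q-Exactive, 5 ppm tolerance, 0.1% formic acid water/acetonitrile gradient) quantified compound in quenched aliquots. Aliquots were taken at 0.05, 0.5, 1, 2, 3 and 4 hr and quenched with internal-standard solution, and supernatants were diluted with water after centrifugation.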
# [6] = test system: Caco-2 cells (clone C2BBe1); assay: CACO-2 permeability; assay type: in vitro ADME; set-up: unit not given here; details: for DM Caco2 A to B: apical to basolateral, donor pH 6.5, receiver pH 7.4; for DM Caco2 B to A: basolateral to apical
# Procedure, shortened: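 A-to-B and B-to-A flux measured by LC-MS/MS from receiver samples taken at 1 and 2 h, with donor sampled at 0 and 2 h and recovery checked. Buffers: pH 6.5 HBSS with 200 μM BNPP on the donor side, pH 7.4 with BSA on the receiver side. Monolayers were 21-day cultures, TEER-verified, in duplicate wells.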
# [7] = Thermodynamic solubility in pH7 buffered solution; details: 50 mM phosphate buffer pH7, 150 mM NaCl, ambient temperature, 24 hours
# Protocol: Solubility was determined at ambient temperature in a 50 mM phosphate buffered pH7 solution with 150 mM NaCl (to achieve isotonicity). Solids were added to the buffered solution in 1.5-mL Eppendorf tubes, vortexed for 1 minute, then agitated for 24 hours in an Eppendorf ThermoMixer C. […] Supernatants were diluted to a volume of 1 mL with 30:70 v/v acetonitrile:water. All diluted supernatants were analyzed by UPLC using a Waters Acquity UPLC with a PDA UV detector.
# [8] = Stability in pH2 buffered solution; assay type: physicochemical; details: pH2 phosphate buffer, 40° C., 24 h; Table N2
# Procedure, shortened: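 UPLC % area-normalized compound peak tracked over 24 hrs at 40° C. (0, 3, 6, 9, 12 and 24 hrs). Samples at 50 μg/mL, prepared from 1 mg/mL acetonitrile stock, in pH2 or pH7 50 mM phosphate/150 mM NaCl buffer.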
# [9] = Stability in pH7 buffered solution; assay type: physicochemical; details: pH7 phosphate buffer, 40° C., Table N2
# Protocol: Example N: Stability in p112 and p117 Buffered Solutions
# The aqueous stability of compounds over a time of 24 hours at 40° C. was assessed. Stability was determined in 50 mM phosphate buffered solutions at both pH2 and pH7, with 150 mM NaCl (to achieve isotonicity). 3-5 mg of solid compounds were added to 7 mL scintillation vials. Acetonitrile was added to each vial to produce a 1 mg/mL stock solution. Stock solutions were diluted to 50 μg/mL in either pH2 or pH7 phosphate buffer, to a volume of 1 mL. For each compound and pH condition, 50 μg/mL samples were prepped in duplicate. One sample was placed on the UPLC tray at 40° C. for analysis, and the second sample was placed in a 40° C. oven for storage. Sample preps for each compound were offset by 40 minutes to account for run time on UPLC.
# Concentration timepoints were measured at 0, 3, 6, 9, and 12 hrs. After 24 hrs, samples in the 40° C. oven were removed and analyzed by UPLC.
# In FIG. 2, % AN stands for % area normalized. That is, % AN is the area of the compound peak relative to the sum of areas of all the peaks in the UPLC chromatogram. For example, if there were two peaks, compound peak with an area of 9 and another peak with an area of 1, then the % AN of the compound peak would be 90%.
Structure (SMILES),EC50 [1],EC50 [2],CC50 [3],half-life at 2 µM [4],STA Human Plasma 37 [5],DM Caco2 A to B [6],DM Caco2 B to A [6],Sol pH 7 [7],pH 2 Stability 24 h % AN [8],pH 7 Stability 24 h % AN [9]
"CC(=O)O[C@H]1[C@@H](OC(C)=O)[C@](C#N)(c2ccc3c(N)ncnn23)O[C@@H]1COC(=O)OC(C)(C)c1ccncc1 [Compound 79, (2R,3R,4R,5R)-2-(4-aminopyrrolo[2,1-f][1,2,4]triazin-7-yl)-2-cyano-5-(((((2-(pyridin-4-yl)propan-2-yl)oxy)carbonyl)oxy)methyl)tetrahydrofuran-3,4-diyl diacetate]",> 50 µM,> 50 µM,> 50 µM,40.9 s,17.837,0.61,9.26,0.26,88 % AN,77 % AN
"CC(C)OC(=O)OC[C@H]1O[C@@](C#N)(c2ccc3c(N)ncnn23)[C@H](OC(=O)OC(C)C)[C@@H]1OC(=O)OC(C)C [Compound 81, (2R,3R,4R,5R)-2-(4-aminopyrrolo[2,1-f][1,2,4]triazin-7-yl)-2-cyano-5-(((isopropoxycarbonyl)oxy)methyl)tetrahydrofuran-3,4-diyl diisopropyl bis(carbonate)]",24.4 µM,0.996 µM,48.3 µM,41.3 s,195.87,7.77,14.74,0.06,100 % AN,98 % AN
"COC(=O)OC[C@H]1O[C@@](C#N)(c2ccc3c(N)ncnn23)[C@H](OC(=O)OC)[C@@H]1OC(=O)OC [Compound 93, (2R,3R,4R,5R)-2-(4-aminopyrrolo[2,1-f][1,2,4]triazin-7-yl)-2-cyano-5-(((methoxycarbonyl)oxy)methyl)tetrahydrofuran-3,4-diyl dimethyl bis(carbonate)]",10.6 µM,11.1 µM,31.7 µM,61 s,28.444,1.2,8.3,0.62,94 % AN,75 % AN
"CCOC(=O)OC[C@H]1O[C@@](C#N)(c2ccc3c(N)ncnn23)[C@H](OC(=O)OCC)[C@@H]1OC(=O)OCC [Compound 106, (2R,3R,4R,5R)-2-(4-aminopyrrolo[2,1-f][1,2,4]triazin-7-yl)-2-cyano-5-(((ethoxycarbonyl)oxy)methyl)tetrahydrofuran-3,4-diyl diethyl bis(carbonate)]",4.56 µM,1.4 µM,> 50 µM,39.6 s,30.917,4.975,9.5,0.08,100 % AN,91 % AN
"CCC1O[C@H]2[C@@H](O1)[C@](C#N)(c1ccc3c(N)ncnn13)O[C@@H]2COC(=O)OC(C)C (stereo partly drawn) [Compound 133, ((3aR,4R,6R,6aR)-6-(4-aminopyrrolo[2,1-f][1,2,4]triazin-7-yl)-6-cyano-2-ethyltetrahydrofuro[3,4-d][1,3]dioxol-4-yl)methyl isopropyl carbonate]",> 50 µM,> 50 µM,> 50 µM,37.4 s,73.357,17.25,16.82,0.24,95 % AN,98 % AN
